Structures can show the parent of a compound that is named as a salt. Where two headings read alike, the source gives them in different places.
Tested on: LMP1 expression in Kem I cells
Experiment: microbe, parasite or virus in culture
Format: cell-based, EBV
Details: for fold induction at 2.5 µM: human gammaherpesvirus 4, 48 h
[1] = Kem I cells, 2.5 uM, 48 hours, average of replicates 1 and 2
[2] = Kem I cells, 2.5 uM, 48 hours, fold change in LMP1 transcript vs vehicle
[3] = read-out: Average LMP1 Fold Increase, Kem I cells, 2.5 uM, 48 hours, average of replicates 1 and 2
[4] = read-out: Replicate 1-LMP1 Fold Increase, Kem I cells, 2.5 uM, 48 hours, fold change in LMP1 transcript vs vehicle
[5] = read-out: Replicate 2-LMP1 Fold Increase, Kem I cells, 2.5 uM, 48 hours, fold change in LMP1 transcript vs vehicle

Row | SMILES | Average LMP1 Fold Increase [1] | Replicate 1-LMP1 Fold Increase [2] | Replicate 2-LMP1 Fold Increase [2] | fold induction at 2.5 µM [3] | fold induction at 2.5 µM [4] | fold induction at 2.5 µM [5] | other results
1 | O=C(O)CNC(=O)c1c(O)c2ccccc2n(Cc2ccccc2)c1=O [IOX2] | 0.39 | 0.40 | 0.38 | – | – | – | –
2 | Oc1ccc2ccccc2c1SSc1c(O)ccc2ccccc12 [IPA-3] | 0.27 | 0.21 | 0.33 | – | – | – | –
3 | C=CC(=O)N1CCC[C@@H](n2nc(-c3ccc(Oc4ccccc4)cc3)c3c(N)ncnc32)C1 [Ibrutinib (PCl-32765)] | – | – | – | – | – | – | Average LMP1 Fold Increase: 0.15; Replicate 1-LMP1 Fold Increase: 0.09; Replicate 2-LMP1 Fold Increase: 0.22
4 | C#Cc1cccc(Nc2ncnc3cc4c(cc23)OCCOCCOCCO4)c1 [Icotinib] | – | – | – | 8.04 | 15.7 | 0.34 | –
5 | CNC(=O)[C@H](Cc1c[nH]c2ccccc12)NC(=O)[C@@H](CC(=O)NO)CC(C)C [Ilomastat (GM6001, Galardin)] | 0.08 | 0.05 | 0.12 | – | – | – | –
6 | Cc1ccc(NC(=O)c2ccc(CN3CCN(C)CC3)cc2)cc1Nc1nccc(-c2cccnc2)n1 [Imatinib (STI571)] | 0.42 | 0.60 | 0.25 | – | – | – | –
7 | CCOC(=O)[C@H](CCc1ccccc1)N[C@@H](C)C(=O)N1C(=O)N(C)C[C@H]1C(=O)O [Imidapril HCl] | – | – | – | 0.66 | 0.88 | 0.44 | –
8 | NC(=O)c1ccc(I)c([N+](=O)[O-])c1 [Iniparib (BSl-201)] | 0.63 | 0.51 | 0.76 | – | – | – | –
9 | CCc1c2c(nc3ccc(OC(=O)N4CCC(N5CCCCC5)CC4)cc13)-c1cc3c(c(=O)n1C2)COC(=O)[C@]3(O)CC [Irinotecan] | 0.59 | – | – | – | – | – | –
10 | CC1=C(/C=C/C(C)=C/C=C/C(C)=C\C(=O)O)C(C)(C)CCC1 [Isotretinoin] | – | – | – | 1.76 | 1.42 | 2.1 | –
11 | Cc1ccc(C(=O)N(CCCN)[C@@H](c2nc3cc(Cl)ccc3c(=O)n2Cc2ccccc2)C(C)C)cc1 [Ispinesib (SB-715992)] | 1.57 | 2.72 | 0.43 | – | – | – | –
12 | CCn1c(=O)c2c(nc(/C=C/c3ccc(OC)c(OC)c3)n2C)n(CC)c1=O [Istradefylline] | – | – | – | 0.7 | 0.35 | 1.06 | –
13 | CC(C)(C)c1cc(C(C)(C)C)c(NC(=O)c2c[nH]c3ccccc3c2=O)cc1O [Ivacaftor (VX-770)] | 1.35 | 2.22 | 0.49 | – | – | – | –
14 | O=C(Nc1ccccc1)N1CCN(c2nc(-c3ccccc3)ns2)CC1 [JNJ-1661010] | 0.51 | 0.31 | 0.70 | – | – | – | –
15 | Cc1ccc(NCCCc2ccccc2)c(N)c1 [JSH-23] | 0.77 | 0.86 | 0.69 | – | – | – | –
16 | COc1cc(-c2ncn(/C=C\C(=O)OC(C)C)n2)cc(C(F)(F)F)c1 [KPT-185] | 0.68 | 0.56 | 0.80 | – | – | – | –
17 | O=C(/C=C\n1cnc(-c2cc(C(F)(F)F)cc(C(F)(F)F)c2)n1)N1CC(F)(F)C1 [KPT-276] | 1.94 | 0.97 | 2.91 | – | – | – | –
18 | O=C(/C=C\n1cnc(-c2cc(C(F)(F)F)cc(C(F)(F)F)c2)n1)NNc1cnccn1 [KPT-330] | 0.35 | 0.28 | 0.42 | – | – | – | –
19 | O=c1cc(-c2cccc3c2Sc2ccccc2S3)oc(N2CCOCC2)c1 [KU-55933 (ATM Kinase Inhibitor)] | 0.78 | 0.60 | 0.95 | – | – | – | –
20 | C[C@@H]1CN(CC(=O)Nc2ccc3c(c2)Cc2cccc(-c4cc(=O)cc(N5CCOCC5)o4)c2S3)C[C@H](C)O1 [KU-60019] | – | – | – | 0.51 | 0.49 | 0.53 | –
21 | COC(=O)CCSCc1ccc(-c2onc(C)c2NC(=O)OC(C)c2ccccc2Cl)cc1 (stereo not shown) [Ki16198] | 1.33 | 1.53 | 1.12 | – | – | – | –
22 | Cc1noc(-c2ccc(CSCCC(=O)O)cc2)c1NC(=O)OC(C)c1ccccc1Cl (stereo not shown) [Ki16425] | 0.62 | 0.80 | 0.45 | – | – | – | –
23 | O=C(c1cn(Cc2cncn2Cc2ccc(Br)cc2)cc1-c1cccc2ccccc12)N1CCOCC1 [LB42708] | 0.31 | 0.46 | 0.16 | – | – | – | –

Row | SMILES | Average LMP1 Fold Increase [1] | Replicate 1-LMP1 Fold Increase [2] | Replicate 2-LMP1 Fold Increase [2] | fold induction at 2.5 µM [3] | fold induction at 2.5 µM [4] | fold induction at 2.5 µM [5] | other results
24 | Cc1c(C(=O)Nc2ccc(N3C[C@@H](C)O[C@@H](C)C3)nc2)cccc1-c1ccc(OC(F)(F)F)cc1 [LDE225 (NVP-LDE225, Erismodegib)] | 0.39 | 0.50 | 0.29 | – | – | – | –
25 | Cc1cc(Nc2ncc(Cl)c(Nc3ccccc3S(=O)(=O)C(C)C)n2)c(OC(C)C)cc1C1CCNCC1 [LDK378] | – | – | – | 0.67 | 0.85 | 0.49 | –
26 | c1cc(-c2cnn3cc(-c4ccc(N5CCNCC5)cc4)cnc23)c2cccnc2c1 [LDN-212854] | 0.62 | 0.96 | 0.27 | – | – | – | –
27 | C[C@H](NC(=O)[C@@H](O)c1cc(F)cc(F)c1)C(=O)N[C@@H]1C(=O)N(C)c2ccccc2-c2ccccc21 [LY411575] | 0.36 | 0.41 | 0.31 | – | – | – | –
28 | Cc1cccc(-c2nn3c(c2-c2ccnc4ccc(C(N)=O)cc24)CCC3)n1 [LY2157299] | 0.30 | 0.30 | 0.30 | – | – | – | –
29 | CC(C)(C)Cn1c(N)nc2ccc(-c3[nH]c(C(C)(C)C)nc3-c3ccc(F)cc3)nc21 [LY2228820] | 0.60 | 0.63 | 0.56 | – | – | – | –
30 | Cc1cnc(NC(=O)Nc2cc(Br)c(C)cc2OC[C@@H]2CNCCO2)cn1 [LY2603618] | 1.21 | 0.94 | 1.47 | – | – | – | –
31 | Cc1cc(Nc2cc(CN3CCOCC3)c3nc(C)c(Cc4ccc(Cl)cc4F)n3n2)n[nH]1 [LY2784544] | 0.94 | 1.24 | 0.65 | – | – | – | –
32 | O=C(C[S+]([O-])Cc1ccco1)NC/C=C\COc1cc(CN2CCCCC2)ccn1 (stereo not shown) [Lafutidine] | – | – | – | 0.85 | 0.94 | 0.76 | –
33 | Nc1cccc2c1CN(C1CCC(=O)NC1=O)C2=O (stereo not shown) [Lenalidomide (CC-5013)] | 1.74 | 1.57 | 1.91 | – | – | – | –
34 | N#Cc1ccc(C(c2ccc(C#N)cc2)n2cncn2)cc1 [Letrozole] | – | – | – | 1.05 | 0.66 | 1.44 | –
35 | CCN1CCC[C@H]1CNC(=O)c1cc(S(N)(=O)=O)ccc1OC [Levosulpiride] | – | – | – | 0.5 | 0.7 | 0.3 | –
36 | CC#CCn1c(N2CCC[C@@H](N)C2)nc2c1c(=O)n(Cc1nc(C)c3ccccc3n1)c(=O)n2C [Linagliptin] | – | – | – | 0.91 | 1.01 | 0.81 | –
37 | Nc1nc(OCc2cc(Br)cs2)c2[nH]cnc2n1 [Lomeguatrib] | – | – | – | 1.09 | 0.57 | 1.61 | –
38 | CCOC(=O)N1CCC(=C2c3ccc(Cl)cc3CCc3cccnc32)CC1 [Loratadine] | – | – | – | 0.28 | 0.24 | 0.32 | –
39 | CCCCc1nc(Cl)c(CO)n1Cc1ccc(-c2ccccc2-c2nnn[n-]2)cc1.[K+] [Losartan Potassium (DuP 753)] | 0.35 | 0.21 | 0.48 | – | – | – | –
40 | CC[C@H](C)C(=O)O[C@H]1C[C@@H](C)C=C2C=C[C@H](C)[C@H](CC[C@@H]3C[C@@H](O)CC(=O)O3)[C@H]21 [Lovastatin] | – | – | – | 0.96 | 0.34 | 1.59 | –
41 | CC(C)CCNC(=O)[C@H](CC(C)C)NC(=O)[C@H]1O[C@@H]1C(=O)O [Loxistatin Acid (E-64C)] | 0.55 | 0.62 | 0.48 | – | – | – | –
42 | C=CCn1c(=O)c2cnc(Nc3ccc(N4CCN(C)CC4)cc3)nc2n1-c1cccc(C(C)(C)O)n1 [MK-1775] | – | – | – | 5.22 | 6.01 | 4.43 | –
43 | Cl.Cl.NC1(c2ccc(-c3nc4ccn5c(=O)[nH]nc5c4cc3-c3ccccc3)cc2)CCC1 [MK-2206 2HCl] | 0.51 | 0.44 | 0.59 | – | – | – | –
44 | C[C@](O)(COc1ccc(C#N)cc1)C(=O)Nc1ccc(C#N)c(C(F)(F)F)c1 [MK-2866 (GTx-024)] | 0.64 | 0.72 | 0.56 | – | – | – | –
45 | O=C(O)Cn1nnc(-c2cc(N3CCC(Oc4cc(F)ccc4Br)CC3)no2)n1 [MK-8245] | – | – | – | 1.17 | 1.51 | 0.84 | –
46 | COc1ccc(CNCc2cccc3ccccc23)cc1.Cl [ML133 HCl] | 0.54 | 0.42 | 0.67 | – | – | – | –

Source: patent US20230053688A1, “METHODS TO ALTER LATENCY IN EBV+ MALIGNANCIES” (Cornell University, priority 2020, published 2023)
